This is an account of results in PMC4467794 (Cell, 2015).

Structures are written as SMILES.

The target in this assay is T1, ALAS2 (apoALAS2) (Homo sapiens, UniProt P22557).
T1 sequence (P22557 50-587): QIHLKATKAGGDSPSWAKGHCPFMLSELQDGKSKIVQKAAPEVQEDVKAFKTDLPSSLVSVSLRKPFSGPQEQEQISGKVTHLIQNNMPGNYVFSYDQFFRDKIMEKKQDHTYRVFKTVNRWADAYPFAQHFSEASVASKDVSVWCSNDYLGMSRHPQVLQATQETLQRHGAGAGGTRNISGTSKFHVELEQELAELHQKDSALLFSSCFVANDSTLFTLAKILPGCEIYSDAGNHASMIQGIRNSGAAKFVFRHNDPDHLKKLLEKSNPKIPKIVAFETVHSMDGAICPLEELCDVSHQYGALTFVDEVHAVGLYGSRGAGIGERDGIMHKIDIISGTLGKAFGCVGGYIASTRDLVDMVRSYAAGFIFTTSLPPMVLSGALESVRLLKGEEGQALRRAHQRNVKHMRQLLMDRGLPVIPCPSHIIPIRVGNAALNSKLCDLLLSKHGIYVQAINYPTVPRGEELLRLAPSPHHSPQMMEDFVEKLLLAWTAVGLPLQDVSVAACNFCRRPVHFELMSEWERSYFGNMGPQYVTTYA
Briefly: PLP reactivation of apoenzyme, NAD-coupled ALAS assay. It counts as biochemical. The note with it: apoALAS2 5 µM, PLP 50 µM, pH 7.6, 30 °C, 5 mM MgCl2, 130 mM KCl, 0.75 mg/ml BSA; covalent.

As to `Cc1ncc(COP(=O)(O)O)c(C=O)c1O` [pyridoxal phosphate], the “PLP reactivation of apoenzyme, NAD-coupled ALAS assay” value is “apoALAS2 activation by PLP in vitro”.
